# Columns and labels:
# Staphylococcus aureus [1] = test: Antibacterial activity against Staphylococcus aureus MTCC 96 by broth microdilution assay; assay type: functional
# Staphylococcus aureus [2] = test: Potentiation of norfloxacin-induced antibacterial activity against clinical isolates of methicillin-resistant Staphylococcus aureus ST10342 assessed as reduction in norfloxacin MIC by checkerboard assay relative to control; assay type: functional
# Staphylococcus aureus [3] = test: Antibacterial activity against clinical isolates of methicillin-resistant Staphylococcus aureus P4650 by checkerboard assay in presence of norfloxacin; assay type: functional
# Staphylococcus aureus [4] = test: Potentiation of norfloxacin-induced antibacterial activity against clinical isolates of methicillin-resistant Staphylococcus aureus ST2071 assessed as reduction in norfloxacin MIC by checkerboard assay relative to control; assay type: functional
# Staphylococcus aureus [5] = test: Bactericidal activity against clinical isolates of methicillin-resistant Staphylococcus aureus ST2071 assessed as reduction in viability at MIC after 24 hrs by time kill kinetic analysis relative to control; assay type: functional
# Staphylococcus aureus [6] = test: Potentiation of norfloxacin-induced antibacterial activity against clinical isolates of methicillin-resistant Staphylococcus aureus P4423 assessed as reduction in norfloxacin MIC by checkerboard assay relative to control; assay type: functional
# Staphylococcus aureus [7] = test: Potentiation of norfloxacin-induced antibacterial activity against clinical isolates of methicillin-resistant Staphylococcus aureus ST10342 assessed as norfloxacin MIC by checkerboard assay; assay type: functional
# Staphylococcus aureus [8] = test: Ratio of MIC for clinical isolates of methicillin-resistant Staphylococcus aureus ST10342 to MIC for clinical isolates of methicillin-resistant Staphylococcus aureus ST10342 in presence of norfloxacin; assay type: functional
# Staphylococcus aureus [9] = test: Antibacterial activity against clinical isolates of methicillin-resistant Staphylococcus aureus ST2071 by broth microdilution assay; assay type: functional
# Staphylococcus aureus [10] = test: Antibacterial activity against clinical isolates of methicillin-resistant Staphylococcus aureus P4423 by broth microdilution assay; assay type: functional
# Staphylococcus aureus [11] = test: Antibacterial activity against clinical isolates of methicillin-resistant Staphylococcus aureus ST10760 by broth microdilution assay; assay type: functional
# Staphylococcus aureus [12] = test: Antibacterial activity against clinical isolates of methicillin-resistant Staphylococcus aureus P4629 by broth microdilution assay; assay type: functional
# Staphylococcus aureus [13] = test: Ratio of MIC for clinical isolates of methicillin-resistant Staphylococcus aureus ST10760 to MIC for clinical isolates of methicillin-resistant Staphylococcus aureus ST10760 in presence of norfloxacin; assay type: functional
# Staphylococcus aureus [14] = test: Potentiation of norfloxacin-induced antibacterial activity against clinical isolates of methicillin-resistant Staphylococcus aureus ST10760 assessed as reduction in norfloxacin MIC by checkerboard assay relative to control; assay type: functional
# Staphylococcus aureus [15] = test: Potentiation of norfloxacin-induced antibacterial activity against clinical isolates of methicillin-resistant Staphylococcus aureus P4650 assessed as reduction in norfloxacin MIC by checkerboard assay relative to control; assay type: functional
# Staphylococcus aureus [16] = test: Bactericidal activity against clinical isolates of methicillin-resistant Staphylococcus aureus ST2071 assessed as reduction in viability at 0.5 MIC after 24 hrs by time kill kinetic analysis relative to control; assay type: functional
# Staphylococcus aureus [17] = test: Potentiation of norfloxacin-induced antibacterial activity against clinical isolates of methicillin-resistant Staphylococcus aureus P4650 assessed as norfloxacin MIC by checkerboard assay; assay type: functional
# Staphylococcus aureus [18] = test: Potentiation of norfloxacin-induced antibacterial activity against clinical isolates of methicillin-resistant Staphylococcus aureus P4629 assessed as norfloxacin MIC by checkerboard assay; assay type: functional
# Staphylococcus aureus [19] = test: Potentiation of norfloxacin-induced antibacterial activity against clinical isolates of methicillin-resistant Staphylococcus aureus ST10760 assessed as norfloxacin MIC by checkerboard assay; assay type: functional
# Staphylococcus aureus [20] = test: Ratio of MIC for clinical isolates of methicillin-resistant Staphylococcus aureus P4423 to MIC for clinical isolates of methicillin-resistant Staphylococcus aureus P4423 in presence of norfloxacin; assay type: functional
# Staphylococcus aureus [21] = test: Potentiation of norfloxacin-induced antibacterial activity against clinical isolates of methicillin-resistant Staphylococcus aureus ST2071 assessed as norfloxacin MIC by checkerboard assay; assay type: functional
# Staphylococcus aureus [22] = test: Antibacterial activity against clinical isolates of methicillin-resistant Staphylococcus aureus ST2071 by checkerboard assay in presence of norfloxacin; assay type: functional
# Staphylococcus aureus [23] = test: Ratio of MIC for clinical isolates of methicillin-resistant Staphylococcus aureus P4650 to MIC for clinical isolates of methicillin-resistant Staphylococcus aureus P4650 in presence of norfloxacin; assay type: functional
# Staphylococcus aureus [24] = test: Antibacterial activity against clinical isolates of methicillin-resistant Staphylococcus aureus P4423 by checkerboard assay in presence of norfloxacin; assay type: functional
# Staphylococcus aureus [25] = test: Ratio of MIC for clinical isolates of methicillin-resistant Staphylococcus aureus P4629 to MIC for clinical isolates of methicillin-resistant Staphylococcus aureus P4629 in presence of norfloxacin; assay type: functional
# Staphylococcus aureus [26] = test: Potentiation of norfloxacin-induced antibacterial activity against clinical isolates of methicillin-resistant Staphylococcus aureus P4423 assessed as norfloxacin MIC by checkerboard assay; assay type: functional
# Staphylococcus aureus [27] = test: Antibacterial activity against clinical isolates of methicillin-resistant Staphylococcus aureus ST10760 by checkerboard assay in presence of norfloxacin; assay type: functional
# Staphylococcus aureus [28] = test: Potentiation of norfloxacin-induced antibacterial activity against clinical isolates of methicillin-resistant Staphylococcus aureus P4629 assessed as reduction in norfloxacin MIC by checkerboard assay relative to control; assay type: functional
# Staphylococcus aureus [29] = test: Antibacterial activity against clinical isolates of methicillin-resistant Staphylococcus aureus ST10342 by broth microdilution assay; assay type: functional
# Staphylococcus aureus [30] = test: Bactericidal activity against clinical isolates of methicillin-resistant Staphylococcus aureus ST2071 assessed as reduction in viability at 0.5 MIC after 24 hrs by time kill kinetic analysis in presence of norfloxacin relative to control; assay type: functional
# Staphylococcus aureus [31] = test: Antibacterial activity against clinical isolates of methicillin-resistant Staphylococcus aureus ST10342 by checkerboard assay in presence of norfloxacin; assay type: functional
# Staphylococcus aureus [32] = test: Antibacterial activity against clinical isolates of methicillin-resistant Staphylococcus aureus P4629 by checkerboard assay in presence of norfloxacin; assay type: functional
# Staphylococcus aureus [33] = test: Ratio of MIC for clinical isolates of methicillin-resistant Staphylococcus aureus ST2071 to MIC for clinical isolates of methicillin-resistant Staphylococcus aureus ST2071 in presence of norfloxacin; assay type: functional
# Staphylococcus aureus [34] = test: Antibacterial activity against clinical isolates of methicillin-resistant Staphylococcus aureus P4650 by broth microdilution assay; assay type: functional
# Mus musculus [35] = test: Toxicity in Swiss mouse infected with Staphylococcus aureus MTCC 96 assessed as morbidity at 12.5 to 100 mg/kg, ip qd for 7 days post infection; assay type: organism-based; details: in vivo, 168 h
# Staphylococcus aureus [36] = test: Antibacterial activity against Staphylococcus aureus MTCC 96 infected in ip dosed Swiss mouse assessed as reduction in bacterial load in kidney administered qd for 7 days post infection measured 24 hrs after last dose by plate counting analysis; assay type: functional, organism-based
# Staphylococcus aureus [37] = test: Antibacterial activity against Staphylococcus aureus MTCC 96 infected in ip dosed Swiss mouse assessed as reduction in bacterial load in liver administered qd for 7 days post infection measured 24 hrs after last dose by plate counting analysis; assay type: functional, organism-based
# Mus musculus [38] = test: Toxicity in Swiss mouse infected with Staphylococcus aureus MTCC 96 assessed as mortality at 12.5 to 100 mg/kg, ip qd for 7 days post infection; assay type: organism-based; details: in vivo, 168 h
# Staphylococcus aureus [39] = test: Antibacterial activity against Staphylococcus aureus MTCC 96 infected in ip dosed Swiss mouse assessed as reduction in bacterial load in spleen administered qd for 7 days post infection measured 24 hrs after last dose by plate counting analysis; assay type: functional, organism-based
# Staphylococcus aureus [40] = test: Antibacterial activity against Staphylococcus aureus MTCC 96 infected in ip dosed Swiss mouse assessed as reduction in bacterial load in blood administered qd for 7 days post infection measured 24 hrs after last dose by plate counting analysis; assay type: functional, organism-based
# Staphylococcus aureus [41] = test: Antibacterial activity against Staphylococcus aureus MTCC 96 infected in ip dosed Swiss mouse assessed as reduction in bacterial load in lung administered qd for 7 days post infection measured 24 hrs after last dose by plate counting analysis; assay type: functional, organism-based
smiles,measurement,setting,value
COc1ccc([C@@H]2COc3c(cc(/C=C/C(=O)c4ccco4)c4c3C=CC(C)(C)O4)C2)c(OC)c1,MIC,Staphylococcus aureus [1],12.5 µg/mL
same,fold change (FC),Staphylococcus aureus [2],8
same,fractional inhibitory concentration index (FICI),Staphylococcus aureus [3],0.625
same,fold change (FC),Staphylococcus aureus [4],8
same,fold change (FC),Staphylococcus aureus [5],2
same,fold change (FC),Staphylococcus aureus [6],8
same,MIC,Staphylococcus aureus [7],31.2 µg/mL
same,Ratio,Staphylococcus aureus [8],4
same,MIC,Staphylococcus aureus [9],25 µg/mL
same,MIC,Staphylococcus aureus [10],12.5 µg/mL
same,MIC,Staphylococcus aureus [11],25 µg/mL
same,MIC,Staphylococcus aureus [12],12.5 µg/mL
same,Ratio,Staphylococcus aureus [13],4
same,fold change (FC),Staphylococcus aureus [14],8
same,fold change (FC),Staphylococcus aureus [15],4
same,fold change (FC),Staphylococcus aureus [16],<=1.52
same,MIC,Staphylococcus aureus [17],62.5 µg/mL
same,MIC,Staphylococcus aureus [18],125 µg/mL
same,MIC,Staphylococcus aureus [19],62.5 µg/mL
same,Ratio,Staphylococcus aureus [20],4
same,MIC,Staphylococcus aureus [21],62.5 µg/mL
same,fractional inhibitory concentration index (FICI),Staphylococcus aureus [22],0.375
same,Ratio,Staphylococcus aureus [23],4
same,fractional inhibitory concentration index (FICI),Staphylococcus aureus [24],0.5
same,Ratio,Staphylococcus aureus [25],4
same,MIC,Staphylococcus aureus [26],31.2 µg/mL
same,fractional inhibitory concentration index (FICI),Staphylococcus aureus [27],0.375
same,fold change (FC),Staphylococcus aureus [28],4
same,MIC,Staphylococcus aureus [29],12.5 µg/mL
same,fold change (FC),Staphylococcus aureus [30],<=3
same,fractional inhibitory concentration index (FICI),Staphylococcus aureus [31],0.5
same,fractional inhibitory concentration index (FICI),Staphylococcus aureus [32],0.625
same,Ratio,Staphylococcus aureus [33],4
same,MIC,Staphylococcus aureus [34],12.5 µg/mL
COc1cc(OC)c([C@@H]2COc3c(cc(/C=C/C(=O)c4ccco4)c4c3C=CC(C)(C)O4)C2)cc1/C=C/C(=O)c1ccco1,Activity,Mus musculus [35],Non-toxic
same,Activity,Staphylococcus aureus [36],Dose-dependent effect
same,MIC,Staphylococcus aureus [1],25 µg/mL
same,Activity,Staphylococcus aureus [37],Dose-dependent effect
same,Activity,Mus musculus [38],Non-toxic
same,fold change (FC),Staphylococcus aureus [2],8
same,fractional inhibitory concentration index (FICI),Staphylococcus aureus [3],0.375
same,fold change (FC),Staphylococcus aureus [4],16
same,fold change (FC),Staphylococcus aureus [5],2
same,fold change (FC),Staphylococcus aureus [6],8
same,MIC,Staphylococcus aureus [7],31.2 µg/mL
same,Ratio,Staphylococcus aureus [8],<=4
same,MIC,Staphylococcus aureus [9],50 µg/mL
same,MIC,Staphylococcus aureus [10],50 µg/mL
same,MIC,Staphylococcus aureus [11],50 µg/mL
same,MIC,Staphylococcus aureus [12],25 µg/mL
same,Activity,Staphylococcus aureus [39],Dose-dependent effect
same,Ratio,Staphylococcus aureus [13],<=4
same,fold change (FC),Staphylococcus aureus [14],8
same,fold change (FC),Staphylococcus aureus [15],8
same,fold change (FC),Staphylococcus aureus [16],<=1.52
same,MIC,Staphylococcus aureus [17],31.2 µg/mL
same,Activity,Staphylococcus aureus [40],Dose-dependent effect
same,MIC,Staphylococcus aureus [18],31.2 µg/mL
same,MIC,Staphylococcus aureus [19],62.5 µg/mL
same,Ratio,Staphylococcus aureus [20],<=4
same,MIC,Staphylococcus aureus [21],31.2 µg/mL
same,fractional inhibitory concentration index (FICI),Staphylococcus aureus [22],0.312
same,Ratio,Staphylococcus aureus [23],<=4
same,fractional inhibitory concentration index (FICI),Staphylococcus aureus [24],0.375
same,Ratio,Staphylococcus aureus [25],<=4
same,MIC,Staphylococcus aureus [26],31.2 µg/mL
same,fractional inhibitory concentration index (FICI),Staphylococcus aureus [27],0.375
same,fold change (FC),Staphylococcus aureus [28],16
same,MIC,Staphylococcus aureus [29],50 µg/mL
same,fold change (FC),Staphylococcus aureus [30],<16
same,fractional inhibitory concentration index (FICI),Staphylococcus aureus [31],0.375
same,fractional inhibitory concentration index (FICI),Staphylococcus aureus [32],0.312
same,Ratio,Staphylococcus aureus [33],<=4
same,Activity,Staphylococcus aureus [41],Dose-dependent effect
same,MIC,Staphylococcus aureus [34],25 µg/mL

# Reference: ChEMBL document CHEMBL3797055, “Glabridin-chalcone hybrid molecules: drug resistance reversal agent against clinical isolates of methicillin-resistant Staphylococcus aureus” (Medchemcomm, 2016)
